Test results: US20080119412A1, “Polypeptides for Modulating Binding of Trp Channel Proteins and Trp- Associated Proteins” (NoNO Inc., priority 2003, published 2008)
Residues, ends and D or L forms follow the SMILES beside them. *: point of attachment. Biotin = O=C1N[C@H]2[C@H](CS[C@H]2CCCCC(=O)*)N1

Columns and labels:
INADL d3 [1] = molecular target: T1, INADL d3 (Homo sapiens, UniProt Q8NI35); assay: G3 assay titration, GST-PDZ fusion / biotinylated peptide; format: binding; conditions: for ODmax (450 nm): Table 10, titration of peptides with INADL d3
T1 construct: made in house; host or cells: E. coli (DH5alpha, BL21 or JM109)
T1 sequence (Q8NI35 with tags, fused parts or gaps): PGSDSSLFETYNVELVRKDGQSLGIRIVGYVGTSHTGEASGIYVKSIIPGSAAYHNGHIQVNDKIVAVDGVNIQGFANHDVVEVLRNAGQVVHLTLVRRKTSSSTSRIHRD
Method: (§1) The G3 assay is identical to the G0 assay with the following exceptions. The peptides are typically present at 0.1 μM rather than 20 μM. The peptides are also pre-incubated with the HRP-streptavidin prior to adding to the assay plate. In the G0 assay, free peptide is incubated with the PDZ proteins prior to the addition of the HRP-streptavidin. Thus, for the G0 assay one can lose signal if the bound peptide dissociates from the PDZ protein prior to the addition of the HRP-streptavidin. In the G3 modified assay the HRP-streptavidin/peptide complex is added to the plate in one step, thus increasing the likelihood that all the bound peptide will be bound to HRP-streptavidin. The G3 modified assay increases the chance of observing weak interactions.
(§2) This example describes assays to identify binding between TRPM7 and PDZ domains. GST-PDZ fusions are produced that each contain an entire PDZ domain (or multiple PDZ domains), the collection encompassing approximately 90% of all PDZ domains identified in the human genome. (See Table 5 and Section V (PDZ Proteins and PL Protein Interactions Disclosure). Biotinylated peptide corresponding to 11 residues of Tat coupled to the C-terminal 9 amino acids of TRPM7 ([…]; SEQ ID NO:258) is synthesized and purified by HPLC.
(§3) • Nunc MaxiSorp 96 well Immuno-plate, Nunc • PBS pH 7.4 (phosphate buffered saline, 8 g NaCl, 0.29 g KCl, 1.44 g Na2HPO4, 0.24 g KH2PO4, add H2O to 1 liter and pH 7.4; 0.2 μm filter) • Assay Buffer: 2% BSA in PBS (20 g of bovine serum albumin per liter PBS, fraction V, ICN Biomedicals, cat#IC15142983 • Goat anti-GST polyclonal Ab, stock 5 mg/ml, stored at 4° C., Amersham Pharmacia cat#27-4577-01 • Dilute 1:1000 in PBS, final concentration 5 μg/ml. • HRP-Streptavidin, 2.5 mg/2 ml stock stored at 4° C., Zymed cat#43-4323, dilute 1:2000 into Assay buffer, final concentration of […] • Wash Buffer, PBS • Biotinylated peptides (HPLC purified, stock solution stored in −20° C. freezer) • GST-PRISM proteins (stock stored at −80° C., after 1st thaw store in −10° C. freezer) • TMB (3,3′,5,5′, teramethylbensidine), tablets, Sigma cat.#T5525 • Per plate, dissolve 1 tablet in 1 ml DMSO, add 9 ml Citrate/Phosphate buffer pH 5.4 and 2 μL H2O2 • 0.1 M H2SO4, Sigma cat.#S1526 • 12-w multichannel pipettor & tips • 50 ml reagent reservoirs, Costar#4870 • 50, 15 ml polypropylene conical tubes • Costar Transtar 96 Costar #7605 • Transtar 96 Cartridge Costar #7610 • Molecular Devices microplate reader (450 & 650 nm filters) with SoftMax Pro software *When using reagents stored at or 4° C. or −20° C., remove & keep on ice
(§4) • 1. Coat plate with 100 μl of 5 μg/ml anti-GST, overnight at 4° C. • 2. Dump contents of plate & out tap dry on paper towels • 3. Block with 200 μl Assay Buffer for 2 hrs at room temperature • 4. Prepare proteins at 5 μg/ml in Assay Buffer • 5. Wash 3× with cold PBS (4° C.), avoiding letting the plates dry out • 6. Add proteins at 50 μl per well, incubate 1 to 2 hrs at 4° C. • 7. Prepare peptides to desired concentration in Assay Buffer • 8. Wash 3× with cold PBS (4° C.), avoiding letting the plates dry out • 9. Add HRP-Streptavidin/peptide complex [prepared by incubating for 20 minutes at room temperature HRP-Streptavidin (1:2000) with the desired biotin-peptide concentration for 20 minutes at room temperature] at 50 μl per well on ice • 10. Place at room temperature for exactly 30 minutes • 11. Promptly wash 5× with PBS at room temperature • 12. Add 100 μl/well TMB substrate (write time on plate) • 13. Incubate in dark at room temperature for a maximum of 30 minutes • 14. Read plate at 25 minutes (650 nm), optional • 15. Stop reaction with 100 μl of 0.18 M H2SO4, 30 minutes after adding TMB • Take last reading at 450 nm soon after stopping reaction
(§5) The G3 assay was performed using 0.1 μM peptide representing 11 amino acids of Tat fused to the final 9 amino acids of TRPM7 ([…]; SEQ ID NO:258). […]

ZO-1 d2 [2] = molecular target: T2, ZO-1 d2 (Homo sapiens, UniProt Q07157, DEL264-264); assay: as above; format: binding; conditions: for ODmax (450 nm): Table 10, titration of peptides with ZO-1 d2
T2 construct: made in house; host or cells: E. coli (DH5alpha, BL21 or JM109)
T2 sequence (Q07157 with tags, fused parts or gaps DEL264-264): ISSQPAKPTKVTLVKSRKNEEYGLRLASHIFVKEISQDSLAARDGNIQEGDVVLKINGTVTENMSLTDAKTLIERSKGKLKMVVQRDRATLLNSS
Method: as §1, §2, §3, §4, §5

INADL d3 [3] = molecular target: T1, INADL d3; assay: G assay, peptide binding to GST-PDZ fusion (Table 11); conditions: Table 11, titrations or binding assays
Method: (§6) The binding of labeled PL peptide (e.g., as listed in TABLE 2 and TABLE 4) to this surface is then measured. In a preferred embodiment, the assay is carried out as follows:
(§7) (1) A PDZ-domain polypeptide is bound to a surface, e.g. a protein binding surface. In a preferred embodiment, a GST/PDZ fusion protein containing one or more PDZ domains is bound to a polystyrene 96-well plate. […] In one embodiment, the GST/PDZ fusion protein is bound via an anti-GST antibody that is coated onto the 96-well plate. Adequate binding to the plate can be achieved when:
(§8) (2) Biotinylated PL peptides are allowed to react with the surface by addition of 50 μl per well of 20 μM solution of the biotinylated peptide in PBS/BSA for 10 minutes at 4° C., followed by an additional 20 minute incubation at 25° C. The plate is washed 3 times with ice cold PBS.
(§9) (3) The binding of the biotinylated peptide to the GST/PDZ fusion protein surface can be detected using a variety of methods and detectors known to one of skill in the art. In one embodiment, 100 μl per well of 0.5 μg/ml streptavidin-horseradish peroxidase (HRP) conjugate dissolved in BSA/PBS is added and allowed to react for 20 minutes at 4° C. The plate is then washed 5 times with 50 mM Tris pH 8.0 containing 0.2% Tween 20, and developed by addition of 100 μl per well of HRP-substrate solution (TMB, Dako) for 20 minutes at room temperature (RT). The reaction of the HRP and its substrate is terminated by addition of 100 μl per well of 1 M sulfuric acid, and the optical density (O.D.) of each well of the plate is read at 450 um.
(§10) (4) Specific binding of a PL peptide and a PDZ domain polypeptide is determined by comparing the signal from the well(s) in which the PL peptide and PDZ domain polypeptide are combined, with the background signal(s). […] Typically a specific or selective reaction will be at least twice background signal, more typically more than 5 times background, and most typically 10 or more times the background signal. […] Correspondingly, a statistical test (e.g. a T-test) comparing repeated measurements of the signal with -repeated measurements of the background will result in a p-value <0.05, more typically a p-value <0.01, and most typically a p-value <0.001 or less. As noted, in an embodiment of the G assay, the signal from binding of a given PL peptide to immobilized (surface bound) GST polypeptide alone is one suitable negative control (sometimes referred to as B1). Because all measurement are done in multiples (i.e. at least duplicate) the arithmetic mean (or, equivalently, average.) of several measurements is used in determining the binding, and the standard error of the mean is used in determining the probable error in the measurement of the binding. The standard error of the mean of N measurements equals the square root of the following: the sum of the squares of the difference between each measurement and the mean, divided by the product of (N) and (N−1). Thus, in one embodiment, specific binding of the PDZ protein to the platebound peptide is determined by comparing the mean signal (“mean S”) and standard error of the signal (“SE”) for a particular PL-PDZ combination with the mean B1.

ZO-1 d2 [4] = molecular target: T2, ZO-1 d2; assay: as above; conditions: Table 11, titrations or binding assays
Method: as §6, §7, §8, §9, §10

Row | Compound | ODmax (450 nm) (INADL d3 [1]) | EC50 (ZO-1 d2 [2]) [nM] | ODmax (450 nm) (ZO-1 d2 [2]) | PDZ domain bound (INADL d3 [3]) | PDZ domain bound (ZO-1 d2 [4]) | EC50 (INADL d3 [1]) [nM]
1 | CC[C@H](C)[C@H](NC(=O)[C@@H](NC(=O)[C@H](CCCNC(=N)N)NC(=O)[C@H](CC(=O)O)NC(=O)[C@H](CO)NC(=O)[C@H](CCCNC(=N)N)NC(=O)[C@H](C)NC(=O)[C@H](CCCNC(=N)N)NC(=O)[C@H](CCCNC(=N)N)NC(=O)[C@H](CCCNC(=N)N)NC(=O)[C@H](CCC(N)=O)NC(=O)[C@H](CCCNC(=N)N)NC(=O)[C@H](CCCNC(=N)N)NC(=O)[C@H](CCCCN)NC(=O)[C@H](CCCCN)NC(=O)[C@H](CCCNC(=N)N)NC(=O)CNC(=O)[C@H](Cc1ccc(O)cc1)NC(=O)CCCC[C@@H]1SC[C@@H]2NC(=O)N[C@@H]21)[C@@H](C)O)C(=O)N[C@@H](Cc1c[nH]c2ccccc12)C(=O)N[C@@H](C)C(=O)O [Peptide 1829] (Biotin-YGRKKRRQRRRARSDRTIWA-OH; C-terminus assumed) | 1.40 | 7 | 2.90 | INADL D3 | ZO-1 D2 | 
2 | CC[C@H](C)[C@H](NC(=O)[C@H](CCC(N)=O)NC(=O)[C@H](Cc1ccc(O)cc1)NC(=O)[C@H](CCCCN)NC(=O)[C@H](CCCNC(=N)N)NC(=O)[C@H](CC(=O)O)NC(=O)[C@@H](NC(=O)[C@H](CCCNC(=N)N)NC(=O)[C@H](CO)NC(=O)[C@H](CCCNC(=N)N)NC(=O)[C@H](CCCNC(=N)N)NC(=O)[C@H](CCCNC(=N)N)NC(=O)[C@H](CCC(N)=O)NC(=O)[C@H](CCCNC(=N)N)NC(=O)[C@H](CCCNC(=N)N)NC(=O)[C@H](CCCCN)NC(=O)[C@H](CCCCN)NC(=O)[C@H](CCCNC(=N)N)NC(=O)CNC(=O)[C@H](Cc1ccc(O)cc1)NC(=O)CCCC[C@@H]1SC[C@@H]2NC(=O)N[C@@H]21)[C@@H](C)O)C(=O)O [Peptide 1839] (Biotin-YGRKKRRQRRRSRTDRKYQI-OH; C-terminus assumed) | 1.60 | < 20 | 2.50 | INADL D3 |  | 130
3 | CC[C@H](C)[C@H](NC(=O)[C@H](CC(C)C)NC(=O)[C@H](CCCNC(=N)N)NC(=O)[C@H](CCCNC(=N)N)NC(=O)[C@H](CCC(=O)O)NC(=O)[C@H](CC(=O)O)NC(=O)[C@H](CCC(N)=O)NC(=O)[C@H](CCCNC(=N)N)NC(=O)[C@H](CCCNC(=N)N)NC(=O)[C@H](CCCNC(=N)N)NC(=O)[C@H](CCC(N)=O)NC(=O)[C@H](CCCNC(=N)N)NC(=O)[C@H](CCCNC(=N)N)NC(=O)[C@H](CCCCN)NC(=O)[C@H](CCCCN)NC(=O)[C@H](CCCNC(=N)N)NC(=O)CNC(=O)[C@H](Cc1ccc(O)cc1)NC(=O)CCCC[C@@H]1SC[C@@H]2NC(=O)N[C@@H]21)C(=O)N[C@H](C(=O)N[C@@H](CC(C)C)C(=O)O)C(C)C [Peptide 1842] (Biotin-YGRKKRRQRRRQDERRLIVL-OH) | 1.90 | 35 | 2.30 |  | ZO-1 D2 | < 1000
4 | CC(C)C[C@H](NC(=O)[C@H](CO)NC(=O)[C@@H](NC(=O)[C@H](CC(C)C)NC(=O)[C@H](CCCNC(=N)N)NC(=O)[C@H](CC(=O)O)NC(=O)CNC(=O)[C@H](CCCNC(=N)N)NC(=O)[C@H](C)NC(=O)[C@H](CCCNC(=N)N)NC(=O)[C@H](CCCNC(=N)N)NC(=O)[C@H](CCCNC(=N)N)NC(=O)[C@H](CCC(N)=O)NC(=O)[C@H](CCCNC(=N)N)NC(=O)[C@H](CCCNC(=N)N)NC(=O)[C@H](CCCCN)NC(=O)[C@H](CCCCN)NC(=O)[C@H](CCCNC(=N)N)NC(=O)CNC(=O)[C@H](Cc1ccc(O)cc1)NC(=O)CCCC[C@@H]1SC[C@@H]2NC(=O)N[C@@H]21)C(C)C)C(=O)O [Peptide 1843] (Biotin-YGRKKRRQRRRARGDRLVSL-OH; C-terminus assumed) | 1.20 | 17 | 2.20 |  | ZO-1 D2 | < 2000
5 | CC[C@H](C)[C@H](NC(=O)[C@H](CCCNC(=N)N)NC(=O)[C@H](Cc1ccc(O)cc1)NC(=O)[C@H](CCCNC(=N)N)NC(=O)[C@H](CC(=O)O)NC(=O)CNC(=O)[C@H](CCCNC(=N)N)NC(=O)[C@H](C)NC(=O)[C@H](CCCNC(=N)N)NC(=O)[C@H](CCCNC(=N)N)NC(=O)[C@H](CCCNC(=N)N)NC(=O)[C@H](CCC(N)=O)NC(=O)[C@H](CCCNC(=N)N)NC(=O)[C@H](CCCNC(=N)N)NC(=O)[C@H](CCCCN)NC(=O)[C@H](CCCCN)NC(=O)[C@H](CCCNC(=N)N)NC(=O)CNC(=O)[C@H](Cc1ccc(O)cc1)NC(=O)CCCC[C@@H]1SC[C@@H]2NC(=O)N[C@@H]21)C(=O)N[C@H](C(=O)O)C(C)C [Peptide 1845] (Biotin-YGRKKRRQRRRARGDRYRIV-OH) |  | < 100 |  |  |  | < 100
6 | CC[C@H](C)[C@H](NC(=O)[C@@H](NC(=O)[C@H](CCCNC(=N)N)NC(=O)[C@H](CC(=O)O)NC(=O)CNC(=O)[C@H](CCCNC(=N)N)NC(=O)[C@H](C)NC(=O)[C@H](CCCNC(=N)N)NC(=O)[C@H](CCCNC(=N)N)NC(=O)[C@H](CCCNC(=N)N)NC(=O)[C@H](CCC(N)=O)NC(=O)[C@H](CCCNC(=N)N)NC(=O)[C@H](CCCNC(=N)N)NC(=O)[C@H](CCCCN)NC(=O)[C@H](CCCCN)NC(=O)[C@H](CCCNC(=N)N)NC(=O)CNC(=O)[C@H](Cc1ccc(O)cc1)NC(=O)CCCC[C@@H]1SC[C@@H]2NC(=O)N[C@@H]21)[C@@H](C)O)C(=O)N[C@H](C(=O)N[C@@H](Cc1ccc(O)cc1)C(=O)O)[C@@H](C)CC [Peptide 1848] (Biotin-YGRKKRRQRRRARGDRTIIY-OH) |  | < 20 |  |  |  | < 2000
7 | CC(C)[C@H](NC(=O)[C@H](Cc1ccc(O)cc1)NC(=O)[C@H](Cc1ccc(O)cc1)NC(=O)[C@H](CCC(=O)O)NC(=O)[C@H](CCCCN)NC(=O)[C@H](CC(=O)O)NC(=O)[C@H](CCCCN)NC(=O)[C@H](CC(N)=O)NC(=O)[C@H](CCCCN)NC(=O)[C@H](CCCNC(=N)N)NC(=O)[C@H](CCCNC(=N)N)NC(=O)[C@H](CCCNC(=N)N)NC(=O)[C@H](CCC(N)=O)NC(=O)[C@H](CCCNC(=N)N)NC(=O)[C@H](CCCNC(=N)N)NC(=O)[C@H](CCCCN)NC(=O)[C@H](CCCCN)NC(=O)[C@H](CCCNC(=N)N)NC(=O)CNC(=O)[C@H](Cc1ccc(O)cc1)NC(=O)CCCC[C@@H]1SC[C@@H]2NC(=O)N[C@@H]21)C(=O)O [Peptide 1852] (Biotin-YGRKKRRQRRRKNKDKEYYV-OH) |  | < 20 |  |  |  | < 20
